Patent US9976183B2, “Biomarkers for cancers responsive to modulators of HEC1 activity” (TAIVEX THERAPEUTICS CORPORATION, priority 2011, dated 2018)

What was measured:
Type in all cases: cell-based
[1] = system: apoptotic caspases in drug-responsive cells (HeLa); assay: Immunoblot of apoptotic and anti-apoptotic markers; conditions: immunoblot (FIG. 5B, FIG. 5D)
Experimental: (§1) Immunoblots: Cell lysates were by incubation of cells in radioimmunoprecipitation assay (RIPA) buffer (50 mM Tris-HCl, pH7.4, 150 mM NaCl, 1% NP40, 0.25% DOC, 0.1% SDS, 1 mM NaVO4, 1 mM EDTA, 1 ug/ml leupeptin, 1 μg/ml pepstatin) or 2.5× sample buffer (50 mM Tris-HCl, pH6.8, 1% SDS, 2.5% BME, 7.5% Glycerol, Bromophenol blue). Tissue samples were immersed in RIPA buffer, disrupted with a homogenizer, and centrifuged to clarify. Samples were then subjected to SDS-PAGE, blotted onto immunoblotting membranes, and incubated with primary antibodies in 3% BSA-TBST. Horseradish peroxidase—conjugated secondary antibodies were used for protein detection by enhanced chemiluminescence (Millipore, Billerica, Mass. 01821 USA). The following antibodies were used for Western blotting: anti-Rb monoclonal antibody 1F8 (Abcam, Cambridge, Mass. 02139-1517 USA); anti-p53 monoclonal antibody (Santa Cruz Biotechnology, Santa Cruz, Calif. 95060 USA); anti-β-actin monoclonal antibody AC-15 (Sigma Aldrich, St. Louis, Mo., USA).

[2] = system: apoptotic caspases in resistant cell line (A549); assay: Immunoblot of apoptotic and anti-apoptotic markers; conditions: A549, immunoblot (FIG. 5C, FIG. 5D)
Experimental: as §1

MEX-SA/Dx5 [3] = assay: Drug sensitivity, MTS assay, drug resistant cell line; conditions: MEX-SA/Dx5, multi-drug resistant uterine sarcoma
Experimental: Drug sensitivity: Cell lines were screened for drug sensitivity by treatment with specified drugs 24 hours after seeding in appropriate seeding numbers into 96 well plates containing low glucose DME with 10% FBS. The drug was added to the plate in triplicate wells, and the cells are incubated in drug treated medium for 96 hours before cell viability was determined by MTS assay using CellTiter 96® Aqueous non-radioactive cell proliferation assay system (Promega, Madison, Wis. 53711 USA). The MTS assay was performed according to the manufacturer's instructions. Optical density was measured using a Bio-Tek 340 spectrophotometer (Bio-Tek, Winooski, Vt. 05404) and optical readings were then processed in Excel (Microsoft, Redmond, Wash. 98052-7329) and GraphPad Prism 5 linear regression software (GraphPad Software, La Jolla, Calif. 92037 USA) to determine concentration-response curves for calculating relative GI50s. […] The % growth inhibition of the test drug on cells were calculated as: [1−(Test Value)/(Control Value)]×100; these values were used to plot concentration-response curves, and then analyzed with linear regression software.

NCI/ADR-RES = assay: Synergy of Hec1 inhibitor with cytotoxic drug (combination index, MTS); conditions: in combination with paclitaxel
Experimental: (§2) Synergy: GI50s for selected drugs were determined and used to calculate a concentration ratio for use synergy assays with Hec1 inhibitors. Cells were treated with drugs 24 hours after being seeded in appropriate seeding numbers into 96 well plates containing low glucose DME with 10% FBS. […] Cell viability was determined by MTS assay using a CellTiter 96® Aqueous non-radioactive cell proliferation assay system (Promega, Madison, Wis. 53711 USA) according to the manufacturer's instructions. Optical density was determined using a Bio-Tek 340 spectrophotometer (Bio-Tek, Winooski, Vt. 05404) and were then processed using Excel (Microsoft, Redmond, Wash. 98052-7329) and GraphPad Prism 5 linear regression software (GraphPad Software, La Jolla, Calif. 92037 USA) to determine concentration-response curves for calculating relative GI50s. Synergy was determined by calculating a combination index value using the formula CI (combination index)=(CA,X/ICx,A)+(CB,X/ICx,B), where CA,X and CB,X are the concentrations of drug A and drug B used in combination to achieve x % drug effect. ICx,A and ICx,B are the concentrations for single agents to achieve the same effect.
(§3) Drugs that can target pathways unreached by other current anti-cancer drugs have even better clinical potential to be incorporated into current therapeutic regimens. […] Hec1 inhibitor-responsive cancer cells used for screening were treated with a mixture of Hec1 inhibitor and select anti-cancer drug at appropriate concentration ratios and evaluated for cell viability. […] Table 9 summarizes the results of synergism studies on a number of cancer derived cell lines treated with Hec1 inhibitor 110001 in combination cytotoxic drugs.

MEX-SA/Dx5 [4] = assay: as above; conditions: in combination with paclitaxel
Experimental: as §2, §3

K562R = assay: as above; conditions: in combination with paclitaxel
Experimental: as §2, §3

[5] = system: phosphorylated p73 in HeLa and A549 cells; assay: Immunoblots for phosphorylated p73
Experimental: as §1
P73 is a member of the p53-family that mediates apoptosis and replaces p53 function in p53-deficient cells. […] To investigate this, drug-responsive (HeLa) and drug-resistant cells (A549) carrying mutant p53 proteins were treated with Hec1 inhibitor 110095 for varying lengths of time.

[6] = system: cyclin B1 and cyclin D1 in HeLa; assay: Cyclin B1 and cyclin D1 content by immunoblotting; conditions: different time periods, immunoblot (FIG. 6C)
Experimental: as §1
To investigate this possibility, drug-responsive (HeLa, MDA-MB-468, HCT116) and resistant cells (A549) were synchronized by starvation and expression of Hec1 and Nek2 characterized at 1(G1), 27(G27), 32(G32), and 48(G48) hours. Differential expression patterns between Hec1 and Nek2 are apparent, indicating differences in regulation of Hec1/Nek2 pathways (FIG. 6A). […]

PCL/PRF/5 = assay: Synergy of Hec1 inhibitor with cytotoxic drug (combination index, MTS); parameters: key: CI = (CA,X/ICx,A)+(CB,X/ICx,B) at x% drug effect
Experimental: as §2
(§4) Hec1 inhibitor-responsive cancer cells used for screening were treated with a mixture of Hec1 inhibitor and select anti-cancer drug at appropriate concentration ratios and evaluated for cell viability.

HepG2 = assay: as above; parameters: key: CI = (CA,X/ICx,A)+(CB,X/ICx,B) at x% drug effect
Experimental: as §2, §4

[7] = in combination with doxorubicin

`COc1ccc(Oc2cc(C)c(-c3csc(NC(=O)c4ccncc4)n3)c(C)c2)cc1` [compound 101001, N-(4-(4-(4-methoxyphenoxy)-2,6-dimethylphenyl)thiazol-2-yl)isonicotinamide] was tested, and the “activation of apoptotic caspases” value [1] was “activation of apoptotic caspases”, the “activation of apoptotic caspases” value [2] was “did not show a similar response” and the GI50 (MEX-SA/Dx5 [3]) was 34.9 nM.

With `COCCOc1cnc(Sc2cc(C)c(-c3csc(NC(=O)c4ccncc4)n3)c(C)c2)cn1` [compound 110095, N-(4-(4-(5-(2-methoxyethoxy)pyrazin-2-ylthio)-2,6-dimethylphenyl)thiazol-2-yl)isonicotinamide] the “Combination Index” value (NCI/ADR-RES) was 0.82, the Synergy (NCI/ADR-RES) was “Yes” and the “Combination Index” value (MEX-SA/Dx5 [4]) was 1.41. The Synergy (MEX-SA/Dx5 [4]) was “No”, the “Combination Index” value (K562R) was 0.65 and the Synergy (K562R) was “Yes”. The “time of peak p73 phosphorylation after drug treatment” value ([5]; immunoblot (FIG. 5A)) was 48 h, the “phosphorylation of p73” value ([5]; immunoblot, treated for varying lengths of time, 200 nM (FIG. 5A)) was “induced time-dependent phosphorylation of p73” and the “Cyclin B1 and cyclin D1 levels” value [6] was “down regulated”. For the same compound, the “Combination Index” value (PCL/PRF/5; in combination with KX01) was 1.08, the “Combination Index” value (PCL/PRF/5; in combination with Taxol) was 0.81 and the “Combination Index” value (PCL/PRF/5; [7]) was 2.31. The “Combination Index” value (PCL/PRF/5; in combination with sorafenib) was 1.41, the “Combination Index” value (PCL/PRF/5; in combination with topotecan) was 2.83 and the “Combination Index” value (HepG2; in combination with KX01) was 2.32. The “Combination Index” value (HepG2; [7]) was 3.00, the “Combination Index” value (HepG2; in combination with sorafenib) was 1.88 and the “Combination Index” value (HepG2; in combination with topotecan) was 3.03.
